Measured values as given in US20230167437A1, “COMPOSITIONS FOR TREATING CANCER WITH KRAS MUTATIONS AND USES THEREOF” (Aadigen, LLC, priority 2020, published 2023).

Tests used:
Format in all cases: cell-based, human
[1] = tested on: Mia-PACA, H23 and H358 cells; test: Cell proliferation over 5 days (CellTiter Glow); details: Mia-PACA, H23, H358 vs KRAS WT HT29 or HS-68 and PANC1 cells
Protocol: (§1) Transfection protocol. The following protocols are reported for 24/48/96 well plate format transfection. Cells should be trypsinized and seeded a day prior transfection Cells were cultured in Dulbecco's Modified Eagle's Medium (DMEM), supplemented with 2 mM glutamine, 1% antibiotics (streptomycin 10,000 μg/mL, penicillin, 10,000 IU/mL) and 10% (w/v) foetal calf serum (FCS), at 37° C. in a humidified atmosphere containing 5% CO2. 96 well plates seeded with 50,000 cells, the day prior transfection, grown to 60-80% confluence and set up to be at around 70% confluence at the day of transfection. Before transfection, cells are washed twice with DMEM (without FBS and pen/strep) (100 μl/well). Cells were then overlaid with 25 μl of complex solution, mixed gently and incubated for 10 min at 37° C.+5% CO2. 50 μl of fresh DMEM (without FBS and Antibiotics) was added and cells were incubated for 2 h at 37° C.+5% CO2 (time of exposure can be adjusted based on sensitivity of the cells). 250 μL of DMEM (containing 10% FCS and 1% antibiotics) were then added without removing the overlay of ADGN peptide/mRNA complexes. Cells were returned to the incubator (37° C., 5% CO2) and analyzed 48 hours to 72 hours post transfection.
(§2) Eight different gRNAs targeting KRAS 34G>T mutant G12C (gRNA34T1, gRNA34T2, gRNA34T3, gRNA34T4, gRNA34T5, gRNA34T6, gRNA34T7 and gRNA34T8) were evaluated on MIA-PACA, H23, H358, H29 and PANC1 cells. Cas9 mRNA (0.1 μg) and gRNA (0.2 μg) were associated with ADGN peptide at molar ratio 20/1 (peptide/nucleic acid). MIA-PACA, H23, H358, PANC1 and HT29 cells were cultured in 48 well plate format and treated with free mRNACas9-gRNA, or ADGN/mRNACas9:gRNA complex. Indel frequencies at the endogenous target sequences was evaluated 72 hours after transfection by either T7E1 method or deep sequencing. Cell proliferation was analyzed over a period of 5 days using CellTiter Glow kits on GlowMax (Promega).

KRAS 34G>T mutant G12C = test: Indel frequencies at the endogenous target sequences (T7E1 / deep sequencing) after ADGN/Cas9 mRNA/gRNA transfection; details: for indel frequencies: deep sequencing, 72 hours after transfection, Cas9 mRNA 0.1 μg, gRNA 0.2 μg; for indel editing and disruption of G12C mutant KRAS (FIG. 3A): Mia-PACA, H23, H358 vs HT29 and PANC1 cells
Protocol: (§3) Complex formation with mRNA:gRNA: ADGN peptide/mRNA/gRNA particles were prepared at a 20:1:1 molar ratio. ADGN/Cas9mRNA/sgRNA complexes were prepared at a 20/1/1 molar ratio with 0.5 μg mRNA: 1.5 μg sgRNA and 5% Glucose or DMEM (example for 96 well plates). […] Premixed Cas9 mRNA/gRNA were prepared in sterile water at room temperature in a glass vial (1-4 ml). ADGN-peptide solution was added dropwise (1 drop/sec) under magnetic agitation at 400 rpm to obtain a 1:2 ratio, and incubated for 30 min at room temperature or 37° C. Just before transfection, 150 μl Glucose or DMEM was added and the solution was mixed under magnetic agitation at 400 rpm for 1 minute. Then the solution was incubated for 5 min at 37° C. Then the complexes was ready for cell transfection or IV administration. Prior to IV administration, complexes were diluted in sucrose 5% solution.
as §1, §2
(§4) In order to confirm the specificity of sgRNAs targeting G12V, G12C or G12D KRAS mutation, gRNA35T3 targeting G12V, gRNA34T6 targeting G12C, and gRNA35A5 targeting G12D were evaluated on a large panel of cancer cells harboring different KRAS mutations including SW403, SW480, PANC1, PK-45H, PK-1, MIA-PACA, H23, H358, HT-29, HS-68 and LS513. Cas9 mRNA (0.2 μg) and gRNA (0.4 μg) were associated with ADGN peptide at molar ratio 20/1 (peptide/nucleic acid). Cells were cultured in 48 well plate format and treated with free mRNACas9-gRNA, or ADGN/mRNACas9:gRNA complex. Indel frequencies at the endogenous target sequences was evaluated 72 hours after transfection by either T7E1 method and cell proliferation was analyzed over a period of 5 days using CellTiter Glow kits on GlowMax (Promega).

wild type KRAS = test: as above; details: deep sequencing, 72 hours after transfection, Cas9 mRNA 0.1 μg, gRNA 0.2 μg
Protocol: as §3, §1
(§5) Nine different gRNAs targeting KRAS 35G>T mutant G12V (gRNA35T1, gRNA35T2, gRNA35T3, gRNA35T4, gRNA35T5, gRNA35T6, gRNA35T7, gRNA35T8 and gRNA35T9 (see FIG. 18)) were evaluated on SW403 and SW480 cancer cells harboring G12V KRAS mutation. Cas9 mRNA (0.15 μg) and gRNA (0.2 μg) were associated with ADGN-peptides as reported in experimental procedure. SW403, SW480 and HT-29 cells were cultured in 48 well plate format and treated with free mRNACas9-gRNA, or ADGN-100/mRNACas9:gRNA complex. Indel frequencies at the endogenous target sequences was evaluated 72 hours after transfection by either T7E1 method and by deep sequencing. Cell proliferation was analyzed over a period of 5 days using CellTiter Glow kits on GlowMax (Promega).
(§6) Nine different gRNAs targeting KRAS 35G>A mutant G12D (gRNA35A1, gRNA35A2, gRNA35A3, gRNA35A4, gRNA35A5, gRNA35A6; gRNA35A7, gRNA35A8, gRNA35A9) were evaluated on LS513, Panc1, PK-45H, and PK1 cancer cells harboring G12D KRAS mutation. Cas9 mRNA (0.1 μg) and gRNA (0.2 μg) were associated with ADGN-peptide at molar ratio 20/1 (peptide/nucleic acid). LS513, Panc1, PK-45H, PK1, HS-68 and HT-29 cells were cultured in 48 well plate format and treated with free mRNACas9-gRNA, or ADGN/mRNACas9:gRNA complex. Indel frequencies at the endogenous target sequences was evaluated 72 hours after transfection by either T7E1 method or deep sequencing. Cell proliferation was analyzed over a period of 5 days using CellTiter Glow kits on GlowMax (Promega).

[2] = tested on: PANC1, PK1, LS513 and PK-45H cells; test: Cell proliferation over 5 days (CellTiter Glow); details: PANC1, PK1, LS513, PK-45H vs HT29 or HS-68 cells harboring KRAS WT
Protocol: as §1, §6

KRAS 35G>A mutant G12D = test: Indel frequencies at the endogenous target sequences (T7E1 / deep sequencing) after ADGN/Cas9 mRNA/gRNA transfection; details: for disruption of G12D mutant KRAS (FIG. 2A): G12D cancer cells vs wild type KRAS cells (HT29 or HS-68); for indel frequencies: deep sequencing, 72 hours after transfection, Cas9 mRNA 0.1 μg, gRNA 0.2 μg
Protocol: as §3, §1, §6, §4

SW403 and SW480 cells = test: Cell proliferation over 5 days (CellTiter Glow); details: SW480 and SW403 cells vs HT29 cells harboring KRAS WT
Protocol: as §1, §5

KRAS 35G>T mutant G12V = test: Indel frequencies at the endogenous target sequences (T7E1 / deep sequencing) after ADGN/Cas9 mRNA/gRNA transfection; details: for indel editing and disruption of G12V mutant KRAS (FIG. 1A): SW403, SW480 vs wild type KRAS HT29 cells, T7E1; for indel frequencies: deep sequencing, 72 hours after transfection, Cas9 mRNA 0.15 μg, gRNA 0.2 μg, ADGN-100
Protocol: as §3, §1, §5, §4

[3] = SW403 cells (heterozygous 35G>T)

Row | Sequence | inhibition of proliferation or survival (FIG. 3B) [1] | indel frequencies (KRAS 34G>T mutant G12C; H23 cells) [%] | indel frequencies (KRAS 34G>T mutant G12C; H358 cells) [%] | indel frequencies (KRAS 34G>T mutant G12C; Mia-PACA cells) [%] | indel editing and disruption of G12C mutant KRAS (FIG. 3A) (KRAS 34G>T mutant G12C) | inhibition of proliferation or survival (FIG. 1B) (SW403 and SW480 cells) | indel editing and disruption of G12V mutant KRAS (FIG. 1A) (KRAS 35G>T mutant G12V) | indel frequencies (KRAS 35G>T mutant G12V; [3]) [%] | indel frequencies (KRAS 35G>T mutant G12V; SW480 cells (homozygous 35G>T)) [%] | further results
1 | CTTGTGGTAGTTGGAGCTTG (guide CTTGTGGTAGTTGGAGCTTG; chemistry not given here) [gRNA34T1, sgRNA target KRAS G12C mutation (34G>T); PAM TGG] | specifically inhibit proliferation or survival of Mia-PACA, H23 and H358 cells | 41 | 29 | 34 | induced indel editing and efficient disruption of G12C mutant KRAS |  |  |  |  | 
2 | GTAGTTGGAGCTGATGGCGT (guide GTAGTTGGAGCTGATGGCGT; chemistry not given here) [gRNA35A7, sgRNA target KRAS G12D mutation (35G>A); PAM AGG] |  |  |  |  |  |  |  |  |  | indel frequencies (wild type KRAS; HS68 cells (WT KRAS)): 4 ± 0.4%; indel frequencies (wild type KRAS; HT-29 cells (WT KRAS)): 7 ± 2%; inhibition of proliferation or survival (FIG. 2B) [2]: specifically inhibit proliferation or survival of PANC1, PK1, LS513 and PK-45H cells; disruption of G12D mutant KRAS (FIG. 2A) (KRAS 35G>A mutant G12D): induced efficient disruption of G12D mutant KRAS; indel frequencies (KRAS 35G>A mutant G12D; LS513 cells): 24 ± 2%; indel frequencies (KRAS 35G>A mutant G12D; PANC1 cells): 47 ± 1%; indel frequencies (KRAS 35G>A mutant G12D; PK1 cells): 31 ± 2%; indel frequencies (KRAS 35G>A mutant G12D; PK-45H cells): 35 ± 0.5%
3 | GTAGTTGGAGCTGTTGGCGT (guide GTAGTTGGAGCTGTTGGCGT; chemistry not given here) [gRNA35T8, sgRNA target KRAS G12V mutation (c.35G>T); PAM AGG] |  |  |  |  |  | specifically inhibit proliferation or survival of SW480 and SW403 cells | specifically induced indel editing and efficient disruption | 40 | 51 | 
4 | GTT GGA GCT GAT GGC GT (guide GTTGGAGCTGATGGCGT; chemistry not given here) [gRNA35A6, sgRNA target KRAS G12D mutation (35G>A); PAM AGG] |  |  |  |  |  |  |  |  |  | indel frequencies (wild type KRAS; HS68 cells (WT KRAS)): 2 ± 1%; indel frequencies (wild type KRAS; HT-29 cells (WT KRAS)): 5 ± 1%; inhibition of proliferation or survival (FIG. 2B) [2]: specifically inhibit proliferation or survival of PANC1, PK1, LS513 and PK-45H cells; disruption of G12D mutant KRAS (FIG. 2A) (KRAS 35G>A mutant G12D): induced efficient disruption of G12D mutant KRAS; indel frequencies (KRAS 35G>A mutant G12D; LS513 cells): 32 ± 5%; indel frequencies (KRAS 35G>A mutant G12D; PANC1 cells): 60 ± 2%; indel frequencies (KRAS 35G>A mutant G12D; PK1 cells): 37 ± 0.4%; indel frequencies (KRAS 35G>A mutant G12D; PK-45H cells): 48 ± 1%
5 | GTT GGA GCT GTT GGC GT (guide GTTGGAGCTGTTGGCGT; chemistry not given here) [gRNA35T6, sgRNA target KRAS G12V mutation (c.35G>T); PAM AGG] |  |  |  |  |  | specifically inhibit proliferation or survival of SW480 and SW403 cells | specifically induced indel editing and efficient disruption | 18 | 39 | 
6 | GTT GGA GCT TGT GGC GT (guide GTTGGAGCTTGTGGCGT; chemistry not given here) [gRNA34T3, sgRNA target KRAS G12C mutation (34G>T); PAM AGG] | specifically inhibit proliferation or survival of Mia-PACA, H23 and H358 cells | 48 | 37 | 51 | induced indel editing and efficient disruption of G12C mutant KRAS |  |  |  |  | 
7 | TGGTAGTTGGAGCTGTTGGCGT (guide TGGTAGTTGGAGCTGTTGGCGT; chemistry not given here) [gRNA35T1, sgRNA target KRAS G12V mutation (c.35G>T); PAM AGG] |  |  |  |  |  | specifically inhibit proliferation or survival of SW480 and SW403 cells | specifically induced indel editing and efficient disruption | 35 | 57 | 
8 | TTG TGG TAG TTG GAG CTT G (guide TTGTGGTAGTTGGAGCTTG; sgRNA, chemical modifications not given here, further chemistry not given here) [gRNA34T5, sgRNA target KRAS G12C mutation (34G>T); PAM TGG] | specifically inhibit proliferation or survival of Mia-PACA, H23 and H358 cells | 68 | 67 | 75 | induced indel editing and efficient disruption of G12C mutant KRAS |  |  |  |  | 
